Reference: US20240166626A1, “Compounds and Methods for Preventing, Treating, or Ameliorating Airway Disease” (THOMAS JEFFERSON UNIVERSITY, priority 2021, published 2024)

Target: β2AR (Homo sapiens, UniProt P07550)
Assay: BRET analysis of β-arrestin2 binding to the β2AR in HEK 293 cells
Format: cell-based
Procedure: Schematic of screening methodologies for cAMP production and β-arrestin binding. Cells were treated with the unbiased beta-agonist isoproterenol (ISO)±test compounds. The primary high throughput screen utilized a luciferase-based cAMP biosensor, GLOSENSORTM (Promega), and an enzyme complementation-based assay, […]® (DiscoveRx). Independent secondary screening utilized a cAMP ELISA and BRET for β-arrestin recruitment. […] Secondary screen for cAMP production by ELISA. […] Cells were lysed and cAMP production was measured. […] Dose response curve for DFPQ as measured by BRET. […] Data for dose response curve was taken 12 min post ISO addition. n=3. […] Cells were lysed and cAMP production was measured by ELISA. […] Cells were read every 2 min post agonist addition. […] Cells were read every three minutes for 18 minutes on a PolarStar Optima plate reader (BMG) to establish peak signal. […] Luminescence was determined at room temperature (23-25° C.) on a PolarStar Optima plate reader (BMG). […] Relative assay bias was calculated from the ratio of normalized cAMP and arrestin recruitment responses. […] BRET was measured using a Tecan Infinite F500 microplate reader. […] Bound [35 S]GTPγS was collected by rapid filtration on GF/B filters, washed 4 times with 4 ml of cold GTPγS wash buffer and analyzed by liquid scintillation counting. […] Band intensity was measured by densitometry using ImageJ. […]

Chain of β2AR (P07550 whole entry): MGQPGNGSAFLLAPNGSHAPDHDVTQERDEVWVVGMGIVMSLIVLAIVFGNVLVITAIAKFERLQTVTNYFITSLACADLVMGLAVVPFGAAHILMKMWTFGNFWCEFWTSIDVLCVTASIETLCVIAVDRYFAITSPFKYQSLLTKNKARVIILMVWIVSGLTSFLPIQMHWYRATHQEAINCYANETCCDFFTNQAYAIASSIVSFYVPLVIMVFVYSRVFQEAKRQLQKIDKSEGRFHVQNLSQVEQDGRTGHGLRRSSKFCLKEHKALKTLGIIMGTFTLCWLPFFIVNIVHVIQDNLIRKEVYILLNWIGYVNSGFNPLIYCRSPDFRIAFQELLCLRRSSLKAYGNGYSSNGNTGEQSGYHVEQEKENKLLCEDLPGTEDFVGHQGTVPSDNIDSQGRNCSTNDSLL

β-arrestin2 recruitment to the β2AR (10 μM DFPQ, over the measured time course, FIG. 2A): fully inhibited | mode of inhibition, global curve fitting and Schild analysis of ISO dose response curves (β-arrestin recruitment readout, FIG. 1D): non-competitive inhibition
Structure (SMILES): Fc1ccc(Nc2nc(NC3CCCCC3)c3ccccc3n2)cc1F [DFPQ, N^4-cyclohexyl-N^2-(3,4-difluorophenyl)quinazoline-2,4-diamine]
